Data reported in patent US9598391B2, “Substituted chroman compounds as calcium sensing receptor modulators” (LUPIN LIMITED, priority 2012, dated 2017).
Where a name gives a salt, the structure may show the parent alone.

Target: T1, Calcium Sensing Receptor (CaSR) (Homo sapiens, UniProt P41180)
T1 construct: expressed in transfected cells
T1 sequence (P41180 20-1078): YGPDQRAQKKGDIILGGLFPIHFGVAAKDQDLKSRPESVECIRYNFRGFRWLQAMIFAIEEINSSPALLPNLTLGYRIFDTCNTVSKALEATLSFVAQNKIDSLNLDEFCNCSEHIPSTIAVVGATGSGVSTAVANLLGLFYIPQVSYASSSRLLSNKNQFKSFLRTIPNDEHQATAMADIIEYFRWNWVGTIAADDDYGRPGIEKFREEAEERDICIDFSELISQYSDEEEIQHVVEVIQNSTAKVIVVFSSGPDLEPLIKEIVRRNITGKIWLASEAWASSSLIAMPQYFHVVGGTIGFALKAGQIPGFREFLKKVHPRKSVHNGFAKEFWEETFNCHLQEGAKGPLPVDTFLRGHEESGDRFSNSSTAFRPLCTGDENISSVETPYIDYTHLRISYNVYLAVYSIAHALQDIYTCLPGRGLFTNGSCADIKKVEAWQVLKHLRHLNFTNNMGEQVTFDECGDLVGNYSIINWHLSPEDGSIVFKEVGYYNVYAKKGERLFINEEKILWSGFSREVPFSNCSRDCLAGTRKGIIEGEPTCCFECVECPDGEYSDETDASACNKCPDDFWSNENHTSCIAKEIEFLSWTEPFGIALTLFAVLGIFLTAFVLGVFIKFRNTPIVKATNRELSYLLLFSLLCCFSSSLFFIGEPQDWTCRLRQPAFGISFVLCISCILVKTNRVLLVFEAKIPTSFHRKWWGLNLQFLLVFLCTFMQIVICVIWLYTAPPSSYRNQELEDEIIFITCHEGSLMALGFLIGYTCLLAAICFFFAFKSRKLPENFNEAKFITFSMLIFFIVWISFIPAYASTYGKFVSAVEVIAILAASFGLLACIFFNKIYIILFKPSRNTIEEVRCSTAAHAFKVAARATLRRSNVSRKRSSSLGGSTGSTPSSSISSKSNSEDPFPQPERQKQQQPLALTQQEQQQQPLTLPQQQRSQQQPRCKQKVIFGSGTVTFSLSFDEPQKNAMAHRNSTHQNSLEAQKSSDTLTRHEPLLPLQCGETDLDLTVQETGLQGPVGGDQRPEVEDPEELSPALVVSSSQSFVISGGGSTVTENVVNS
Assay: In-vitro assay of calcimimetics through modulation of Calcium Sensing Receptor (intracellular calcium, FLIPR)
Format: cell-based
Conditions: HEK293 cells stably expressing hCaSR, increase in intracellular calcium, Fluo4NW dye, 0.3 mM CaCl2, 8-point assay, read-out: EC50 Range
Protocol: In-vitro assay method of Calcimimetics through modulation of Calcium Sensing Receptor (CaSR):
The ability of the compounds to modulate Calcium sensing receptor is determined by measuring an increase in intracellular calcium [Ca^2+]i. Stably transfected HEK293 cells expressing hCaSR_pTriEx-3 hygro vector are developed. Cells are grown overnight on a 96-well plate to 80% confluency in Ham's F12 containing 20% FBS at 37° C., 5% CO2. Subsequently, cells are washed extensively with 20 mM HEPES buffer containing 126 mM […], 1 mM MgCl2 and 4 mM KCl to remove serum components that might interfere with the assay. Cells are loaded with calcium sensing Fluo4NW dye in HEPES base buffer containing 0.1% BSA and 1 mg/ml glucose for 30 minutes to measure changes in intracellular calcium. The activities of the compounds are measured in FLIPR using 0.3 mM CaCl2 in 20 mM HEPES base buffer. The effectiveness of the compound to modulate receptor activity is determined by calculating the EC50 responses for that compound in an 8-point assay and plotted using GraphPad Prism 5.

EC50 [nM]	Structure (SMILES)
20 to 50	C[C@@H](NC[C@H]1C[C@@H](c2cc(F)c(C(=O)O)c(F)c2)c2ccccc2O1)c1cccc2ccccc12 [Example 101, 2,6-Difluoro-4-((2R,4S)-2-((((R)-1-(naphthalen-1-yl)ethyl)amino)methyl)chroman-4-yl)benzoic acid hydrochloride]
< 20	Cc1cc(C(=O)O)cc([C@@H]2C[C@H](CN[C@H](C)c3cccc4ccccc34)Oc3ccccc32)c1 [Example 75, 3-Methyl-5-((2R,4S)-2((((R)-1-(naphthalen-1-yl)ethyl)amino)methyl)chroman-4-yl)benzoic acid hydrochloride]
< 20	C[C@@H](NC[C@H]1C[C@@H](c2cccc(C(=O)NCC(=O)O)c2)c2ccccc2O1)c1cccc2ccccc12 [Example 140, 2-(3-((2R,4S)-2-((((R)-1-(Naphthalen-1-yl)ethyl)amino)methyl)chroman-4-yl)benzamido) acetic acid hydrochloride]
20 to 50	CCN(CC)C(=O)c1cc([C@@H]2C[C@H](CN[C@H](C)c3cccc4ccccc34)Oc3ccccc32)ccc1C [Example 146, N,N-Diethyl-2-methyl-5-((2R,4S)-2-((((R)-1-(naphthalen-1-yl)ethyl)amino)methyl)chroman-4-yl)benzamide hydrochloride]
50 to 200	C[C@@H](NC[C@H]1C[C@@H](c2ccc(C(=O)O)cc2)c2ccccc2O1)c1cccc2ccccc12 [Example 98b, 4-((2R,4S)-2-((((R)-1-(Naphthalen-1-yl)ethyl)amino)methyl)chroman-4-yl)benzoic acid hydrochloride]
< 20	COc1c(C(=O)O)cccc1[C@@H]1C[C@H](CN[C@H](C)c2cccc3ccccc23)Oc2ccccc21 [Example 89b, 2-Methoxy-3-((2R,4R)-2-((((R)-1-(naphthalen-1-yl)ethyl)amino)methyl)chroman-4-yl)benzoic acid hydrochloride]
